Experimental data from patent US10517889B2, “Modulators of SMAD7 expression” (Ionis Pharmaceuticals, Inc., priority 2017, dated 2019).
Strand notation (5' to 3'): a small letter for the sugar, then the base; units joined by * are phosphorothioate-linked, units joined directly phosphodiester-linked; [ ] holds rarer units or linkages, { } end groups; capitals alone tell only the bases. k = constrained ethyl (cEt); [5mC] = 5-methylcytosine; d = 2'-deoxy (DNA)

Test system: human SMAD7 mRNA
Assay: Antisense inhibition of human SMAD7 mRNA expression in Hep3B cells by 3-10-3 cEt gapmers, 10,000 nM, electroporation (Example 2)
Assay type: cell-based
Conditions: approximately 24 hours
Procedure, shortened: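 qRT-PCR (RTS5062) of SMAD7 mRNA, normalised to RIBOGREEN total RNA, gave percent inhibition relative to untreated controls. Hep3B cells at 20,000 per well received 10,000 nM oligonucleotide by electroporation, with ~24 h treatment.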

[1] = Hep3B cells, 10,000 nM antisense oligonucleotide, electroporation, RT-PCR primer probe set RTS5062, relative to untreated control cells
[2] = Hep3B cells, electroporation with 10,000 nM antisense oligonucleotide, SMAD7 mRNA by RT-PCR (RTS5062), relative to untreated control cells

Row | Substance | % Inhibition [1] [%] | % Inhibition [2] [%]
1 | 799939 (antisense kG*k[5mC]*kA*dT*dT*dT*dA*dA*dT*dT*dT*dG*d[5mC]*kA*kA*k[5mC]) [compound 799939] | 38 | –
2 | 799940 (antisense k[5mC]*kT*kT*dT*dG*dA*dG*dG*dA*dG*d[5mC]*dA*dG*kG*kG*kT) [compound 799940] | – | 50
3 | 799941 (antisense kT*kT*kT*dA*d[5mC]*dT*dA*d[5mC]*d[5mC]*dT*dT*d[5mC]*d[5mC]*kA*kG*kA) [compound 799941] | – | 44
4 | 799942 (antisense kA*kA*k[5mC]*dA*d[5mC]*dT*dG*dG*dT*dT*d[5mC]*d[5mC]*dA*kT*kT*kT) [compound 799942] | – | 0
5 | 799943 (antisense kT*kG*k[5mC]*d[5mC]*d[5mC]*dT*d[5mC]*dT*d[5mC]*dA*dG*dG*dG*kT*k[5mC]*kT) [compound 799943] | – | 0
6 | 799944 (antisense k[5mC]*kT*kG*d[5mC]*dA*dG*d[5mC]*dA*dA*dG*dA*dA*dG*kT*kG*kG) [compound 799944] | – | 5
7 | 799945 (antisense kA*kG*k[5mC]*dT*dT*dT*dT*dA*dG*dA*dG*d[5mC]*dT*kG*k[5mC]*kG) [compound 799945] | – | 5
8 | 799946 (antisense kT*k[5mC]*kA*dG*dA*dA*d[5mC]*dA*d[5mC]*dA*d[5mC]*dT*dT*kT*kG*kG) [compound 799946] | – | 2
9 | 799947 (antisense kT*k[5mC]*kT*dA*dA*dA*dG*d[5mC]*d[5mC]*dA*d[5mC]*d[5mC]*dA*kA*kG*k[5mC]) [compound 799947] | – | 28
10 | 799948 (antisense kA*kT*kA*dT*dT*dG*d[5mC]*d[5mC]*dT*dG*dG*dT*dG*kT*kG*kA) [compound 799948] | – | 48
11 | 799949 (antisense kA*k[5mC]*kT*dG*dG*d[5mC]*d[5mC]*dG*dA*dA*dG*dT*dG*k[5mC]*kA*kG) [compound 799949] | – | 10
12 | 799950 (antisense kG*k[5mC]*kA*d[5mC]*dA*dA*dG*dT*d[5mC]*dA*d[5mC]*dT*dG*kG*k[5mC]*k[5mC]) [compound 799950] | 0 | –
13 | 799951 (antisense kT*k[5mC]*kT*dT*dA*dA*dA*dA*dA*dA*dA*dG*dG*kG*kA*kG) [compound 799951] | 0 | –
14 | 799952 (antisense k[5mC]*kT*k[5mC]*dT*dA*dA*dG*dT*dG*dG*d[5mC]*dT*d[5mC]*kA*kT*kG) [compound 799952] | 30 | –
15 | 799953 (antisense kA*kG*kA*dA*dA*dA*dT*dG*d[5mC]*d[5mC]*d[5mC]*dA*d[5mC]*k[5mC]*kA*kG) [compound 799953] | 0 | –
16 | 799954 (antisense k[5mC]*kA*kG*dA*dA*dA*dA*dT*dG*d[5mC]*d[5mC]*d[5mC]*dA*k[5mC]*k[5mC]*kA) [compound 799954] | 42 | –
17 | 799955 (antisense k[5mC]*kG*k[5mC]*dT*d[5mC]*dA*dG*dA*dA*dA*dA*dT*dG*k[5mC]*k[5mC]*k[5mC]) [compound 799955] | 50 | –
18 | 799956 (antisense kT*k[5mC]*kT*d[5mC]*d[5mC]*dA*dG*d[5mC]*d[5mC]*dG*d[5mC]*dT*d[5mC]*kA*kG*kA) [compound 799956] | 57 | –
19 | 799957 (antisense kT*k[5mC]*kT*dG*dA*dG*dG*d[5mC]*dT*d[5mC]*d[5mC]*dT*dG*kG*kG*kT) [compound 799957] | 11 | –
20 | 799958 (antisense kG*kT*kG*dG*dA*dG*dA*dG*dT*dG*d[5mC]*dT*dG*k[5mC]*kA*k[5mC]) [compound 799958] | 23 | –
21 | 799959 (antisense kA*kG*k[5mC]*dT*dT*dG*dT*dG*dG*dA*dG*dA*dG*kT*kG*k[5mC]) [compound 799959] | 1 | –
22 | 799960 (antisense kA*kA*kA*d[5mC]*dA*dG*dG*dG*dT*dT*d[5mC]*d[5mC]*d[5mC]*k[5mC]*k[5mC]*kA) [compound 799960] | – | 8
23 | 799961 (antisense k[5mC]*k[5mC]*kT*dA*dA*dA*dA*d[5mC]*dA*dG*dG*dG*dT*kT*k[5mC]*k[5mC]) [compound 799961] | – | 20
24 | 799962 (antisense k[5mC]*k[5mC]*kA*dA*d[5mC]*d[5mC]*d[5mC]*d[5mC]*dA*dG*dA*dG*dG*kT*kG*kA) [compound 799962] | – | 0
25 | 799963 (antisense kA*kG*k[5mC]*d[5mC]*dA*dT*dG*dG*d[5mC]*dA*dG*dA*dA*k[5mC]*k[5mC]*k[5mC]) [compound 799963] | – | 6
26 | 799965 (antisense k[5mC]*kT*k[5mC]*d[5mC]*dA*dG*dT*dG*dA*dA*dG*dT*dG*kA*kG*kA) [compound 799965] | – | 0
27 | 799966 (antisense kG*kT*kG*dG*dA*dA*dG*dG*d[5mC]*dT*dG*dA*d[5mC]*k[5mC]*kT*kG) [compound 799966] | – | 35

Row | Substance | % Inhibition [1] [%] | % Inhibition [2] [%]
28 | 799968 (k[5mC]*kT*kG*d[5mC]*dG*dA*dG*dT*dT*dA*dA*dT*d[5mC]*kA*kG*kA; antisense) [compound 799968] | – | 27
29 | 799969 (kT*kT*kA*dG*dA*dG*dT*dG*dA*dG*dT*dT*d[5mC]*k[5mC]*kT*k[5mC]; antisense) [compound 799969] | – | 46
30 | 799970 (kT*k[5mC]*k[5mC]*dT*d[5mC]*dA*dG*dG*dA*dA*dA*d[5mC]*dA*k[5mC]*kA*kG; antisense) [compound 799970] | 43 | –
31 | 799971 (kG*kT*kA*dA*dA*dA*d[5mC]*dT*dT*dG*d[5mC]*dT*dG*kA*kG*kA; antisense) [compound 799971] | 31 | –
32 | 799972 (k[5mC]*kA*k[5mC]*dA*dA*dG*dG*dA*d[5mC]*d[5mC]*d[5mC]*dT*dT*kG*k[5mC]*kT; antisense) [compound 799972] | 0 | –
33 | 799973 (kA*kT*kA*dA*dT*dT*d[5mC]*dA*d[5mC]*dA*dA*dG*dG*kA*k[5mC]*k[5mC]; antisense) [compound 799973] | 0 | –
34 | 799974 (kG*kA*k[5mC]*dT*d[5mC]*d[5mC]*dA*dG*dT*dG*d[5mC]*d[5mC]*dA*kA*kT*k[5mC]; antisense) [compound 799974] | 23 | –
35 | 799975 (kT*k[5mC]*kT*dT*d[5mC]*dA*dG*dG*dG*dA*d[5mC]*dA*dA*kG*k[5mC]*k[5mC]; antisense) [compound 799975] | 38 | –
36 | 799976 (kT*k[5mC]*kA*dA*dA*dG*dG*dT*dT*dA*dA*d[5mC]*dA*kG*k[5mC]*kA; antisense) [compound 799976] | 34 | –
37 | 799977 (kG*kG*kA*d[5mC]*dA*dT*d[5mC]*dT*d[5mC]*dA*dA*dA*dG*kG*kT*kT; antisense) [compound 799977] | 36 | –
38 | 799978 (k[5mC]*kT*k[5mC]*d[5mC]*dA*d[5mC]*dA*dA*d[5mC]*dG*dG*dA*d[5mC]*kA*kT*k[5mC]; antisense) [compound 799978] | 24 | –
39 | 799979 (kA*kA*k[5mC]*dG*dG*dT*dT*dG*d[5mC]*d[5mC]*dT*d[5mC]*dA*kT*k[5mC]*k[5mC]; antisense) [compound 799979] | 38 | –
40 | 799981 (kA*k[5mC]*k[5mC]*dA*dA*d[5mC]*dG*dG*dT*dT*dG*d[5mC]*d[5mC]*kT*k[5mC]*kA; antisense) [compound 799981] | – | 14
41 | 799982 (k[5mC]*kA*k[5mC]*d[5mC]*dA*d[5mC]*dG*d[5mC]*d[5mC]*dT*d[5mC]*dG*d[5mC]*kT*kA*kA; antisense) [compound 799982] | – | 0
42 | 799983 (k[5mC]*kA*kT*d[5mC]*dA*d[5mC]*d[5mC]*dA*d[5mC]*dG*d[5mC]*d[5mC]*dT*k[5mC]*kG*k[5mC]; antisense) [compound 799983] | – | 15
43 | 799984 (kA*k[5mC]*kA*dT*d[5mC]*dA*d[5mC]*d[5mC]*dA*d[5mC]*dG*d[5mC]*d[5mC]*kT*k[5mC]*kG; antisense) [compound 799984] | – | 61
44 | 799985 (kA*kA*k[5mC]*dA*dT*d[5mC]*dA*d[5mC]*d[5mC]*dA*d[5mC]*dG*d[5mC]*k[5mC]*kT*k[5mC]; antisense) [compound 799985] | – | 53
45 | 799986 (kA*kA*kA*d[5mC]*dA*dT*d[5mC]*dA*d[5mC]*d[5mC]*dA*d[5mC]*dG*k[5mC]*k[5mC]*kT; antisense) [compound 799986] | – | 44
46 | 799987 (k[5mC]*kA*kA*dA*d[5mC]*dA*dT*d[5mC]*dA*d[5mC]*d[5mC]*dA*d[5mC]*kG*k[5mC]*k[5mC]; antisense) [compound 799987] | – | 57
47 | 799988 (kG*k[5mC]*kG*d[5mC]*dA*dA*dA*d[5mC]*dA*dT*d[5mC]*dA*d[5mC]*k[5mC]*kA*k[5mC]; antisense) [compound 799988] | – | 32
48 | 799989 (kT*kG*k[5mC]*dA*d[5mC]*d[5mC]*dT*dG*dG*d[5mC]*dA*dA*d[5mC]*k[5mC]*kT*kG; antisense) [compound 799989] | – | 57
49 | 799990 (kT*kT*kG*d[5mC]*dA*d[5mC]*d[5mC]*dT*dG*dG*d[5mC]*dA*dA*k[5mC]*k[5mC]*kT; antisense) [compound 799990] | 0 | –
50 | 799991 (kG*kG*k[5mC]*d[5mC]*dG*d[5mC]*d[5mC]*dT*d[5mC]*d[5mC]*dT*dG*d[5mC]*kA*kG*kG; antisense) [compound 799991] | 19 | –
51 | 799992 (kG*kG*k[5mC]*dA*d[5mC]*dG*dG*d[5mC]*d[5mC]*dG*d[5mC]*d[5mC]*dT*k[5mC]*k[5mC]*kT; antisense) [compound 799992] | 9 | –
52 | 799993 (kA*kT*kA*dA*dT*dG*dA*dA*dG*dT*dG*dA*dT*kA*kT*kT; antisense) [compound 799993] | 0 | –
53 | 799994 (kA*k[5mC]*kT*dT*dG*dG*dA*dT*dA*dA*dT*dG*dA*kA*kG*kT; antisense) [compound 799994] | 2 | –
